Where “and” joins values, the source holds several entries; their conditions need not be identical. Equal entries are not always repeated.
Settings: Liquid, Ebulliometric method (Recirculating still)

CCO [ethanol]
Settings | vapor or sublimation pressure
307.52 K | 13.19 kPa
309.89 K | 15.05 kPa
312.21 K | 17.13 kPa
315.24 K | 20 kPa
318.42 K | 23.45 kPa
320.31 K | 25.72 kPa
322.13 K | 28.12 kPa
324.1 K | 30.85 kPa
325.96 K | 33.68 kPa
327.52 K | 36.2 kPa
329.57 K | 40 kPa
329.58 K | 40 kPa
331.49 K | 43.49 kPa
333.45 K | 47.62 kPa
335.16 K | 51.36 kPa
336.76 K | 55.12 kPa
338.72 K | 60.05 kPa
338.73 K | 60 kPa
340.19 K | 63.84 kPa
341.5 K | 67.56 kPa
343.06 K | 72.1 kPa
344.37 K | 75.99 kPa
345.69 K | 79.99 kPa and 80 kPa
347.1 K | 84.65 kPa
348.51 K | 89.37 kPa
349.83 K | 94.48 kPa
351.55 K | 101.31 kPa
351.65 K | 101.3 kPa

CC(=O)OC(C)C [1-methylethyl ethanoate]
Settings | vapor or sublimation pressure
304.07 K | 10.57 kPa
306.28 K | 11.58 kPa
308.95 K | 13.35 kPa
312.53 K | 15.79 kPa
316.52 K | 19 kPa
317.77 K | 20 kPa
320.42 K | 22.45 kPa
323.45 K | 25.6 kPa
325.91 K | 28.24 kPa
328.97 K | 31.94 kPa
332.14 K | 36.19 kPa
334.75 K | 39.98 kPa and 40 kPa
337.73 K | 44.85 kPa
340.95 K | 50.51 kPa
344.18 K | 56.66 kPa
345.94 K | 60.03 kPa and 60 kPa
348.17 K | 65.32 kPa
350.35 K | 70.47 kPa
352.47 K | 75.52 kPa
354.29 K | 79.97 kPa and 80 kPa
356.48 K | 85.89 kPa
358.2 K | 90.5 kPa
359.77 K | 95.13 kPa
361.79 K | 101.26 kPa and 101.3 kPa

Source: the NIST ThermoML archive (doi:10.1021/acs.jced.8b00005)
